Assay results reported in patent US10023615B2, “Efficient transport into white blood cells” (priority 2008, dated 2018).
Ends that are not written are not given here.

System: db/db mice
Assay: db/db mice model of type 2 diabetes, chronic treatment
Format: in vivo, mouse
Excerpt: The aim was to determine the activity of IB(s) peptides and all-D retro-inverso IB(s) peptides and variants thereof in the treatment of Diabetes Type 2, particularly to determine the effect of chronic treatment with XG-102 (SEQ ID NO: 233) in the db/db mice model of type 2 diabetes by evaluating fasting blood glucose levels every third day (28 days)
a) Materials and Methods • i) Animals • A total of twenty (20) male db/db mice (8 weeks old) were obtained from Charles River (Germany). Upon arrival, animals were group housed (n=6-7/group) and offered regular rodent chow (Altromin standard #1324 chow; C. Petersen, Ringsted, Denmark) and water ad libitum unless otherwise stated. • The mice were housed under a 12:12 L/D cycle (lights on at 4:00 and lights off at 16:00) and in temperature and humidity controlled rooms. • ii) Groups and Randomization • On day −4, mice were randomized according to blood glucose level (fasted; blood glucose measured on Biosen S line analyzer (EKF diagnostic, Germany) to participate in one of the following drug treatment groups (n=6): • 1) Vehicle control, S.C. (physiological saline) • 2) XG-102 (SEQ ID NO: 233); 1 mg/kg; s.c. • 3) XG-102 (SEQ ID NO: 233); 10 mg/kg; s.c • All doses listed were calculated for the free-base. Drug purity: 95.28%, peptide content: 78.0%. All compounds were administered sub-cutaneously (s.c.) in a volume of 3 ml/kg. The formulation instructions for vehicle control and XG-102 (SEQ ID NO: 233) were as follows: • First, XG-102 (SEQ ID NO: 233) was dissolved in the vehicle. The formulations (concentrations of 0.33 and 3.3 mg/ml, corresponding to the doses of 1 and 10 mg/kg, respectively) were prepared according to the procedure detailed below. Concentrations were calculated and expressed taking into account test items purity and peptide content (multiplier coefficient was 1.346). • Preparation of a stock solution: the freeze-dried test compound XG-102 (SEQ ID NO: 233) is thawed for one hour minimum and prepared as a stock solution in the vehicle at 1 mM (corresponding to 3.823 mg/mL). Aliquots are prepared for each treatment day and stored at approximately −80° C. Dilutions of this stock solution to the required concentrations are performed on each treatment day; • Storage of the stock solution: at approximately −80° C.; • Storage of the diluted preparations: at room temperature for 24 hours maximum. • Prior to solubilisation, the powder was stored at −20° C. The stability of the stock solution is 3 months at approximately −80° C.; the stability of the diluted formulations for animal dosing is 24 hours at room temperature. Unused diluted material could be stored for up to 7 days if kept at 4-8° C.
c) Experimental Procedure • Following 8 days of acclimatization the mice were treated daily at 08.00 AM for 21 days by SC dosing 8 hours prior to lights out at 04.00 PM according to the outline groups. […] Mice were stratified into two sub-teams of n=6-7 and subsequently the metabolic characterisation were performed on study days 71-72. • iii) Adipokine Panel • Groups 1+3: On three occasions (study days 57, 66 and 108) blood was collected from the tail vein using EDTA coated hematocrite tubes (100 μl). Following centrifugation of blood the plasma was collected and stored at −20° C. until measurement. Then, the following panel of adipokines/cytokines was determined using Luminex based 7-plex: leptin, resistin, MCP-1, PAI-1, TNF, insulin and interleukin-6 (IL-6). • iv) Termination • Groups 1+3 (day 111): The following organs were excised and weighed:
inguinal subcutaneous fat, epididymal fat, retroperitoneal fat, brain, liver, kidney, spleen and heart. All organs described above were samples in 4% PFA for possible future histo-pathological examination. Also, pancreas (en bloc) was sampled for possible stereological and imunohistochemical analysis, and eyes were sampled for possible later analysis of retinopathy. Group 2 (day 28): No tissues or plasma were collected.

Question: For “dqsrpvqpflnIttprkprpprrrqrrkkrg (DQSRPVQPFLNLTTPRKPRPPRRRQRRKKRG; not fully specified (some residues); printed as dqsrpvqpflnIttprkprpprrrqrrkkrg) [XG-102]”, which “body weight vs vehicle” value (1 mg/kg, 28 days of dosing) is on record?
Answer: Its value is “no effect”.

Question: What about the “fasting blood glucose vs vehicle” value (1 mg/kg, 28 days of dosing) of the same substance?
Answer: Its value is “no effect”.

Question: What about the “dosing time until blood glucose effect evident” value (10 mg/kg) of the same substance?
Answer: The value was 14 days.

Question: What about the “fasting blood glucose plateau” value (10 mg/kg) of the same substance?
Answer: Its value is “approximately 5 mmol/L”.

Question: And the “fasting blood glucose vs vehicle” value (10 mg/kg s.c. daily for 21 days, wash-out to day 111)?
Answer: The value was “clear and significant (p<0.001) decrease”.

Question: What about the “tissue weight of brain, spleen and heart” value (10 mg/kg, day 111) of the same substance?
Answer: Its value is “no significant effects”.

Question: What about the “tissue weight of fat pads at termination” value (10 mg/kg, day 111) of the same substance?
Answer: The value was “a significant decrease of epididymal (p<0.05) and retroperitoneal (p<0.01) fat mass”.

Question: What about the “tissue weight of kidney and liver” value (10 mg/kg, day 111) of the same substance?
Answer: Its value is “a significant decrease of kidney (p<0.05) and liver (p<0.01) mass”.

Question: What about the “body weight vs vehicle” value (10 mg/kg, from day 28 to day 111) of the same substance?
Answer: The value was “clear and significant (p<0.001) prevention of body weight increase”.

Question: What about the “general observations: sedation” value (acute dosing period) of the same substance?
Answer: The value was “no signs of sedation”.

Question: What about the “reaction of subcutaneous tissue at injection site” value (group B (1 mg/kg s.c. daily)) of the same substance?
Answer: The value was “mild nodular fibrosis was observed”.

Question: What about the “reaction of subcutaneous tissue at injection site” value (high dose (10 mg/kg s.c. daily), after approximately two weeks) of the same substance?
Answer: Its value is “nodular fibrosis was observed in the subcutaneous tissue”.
